Patent US20240049706A1, “COMPOSITIONS AND METHODS FOR CONTROLLING INSECTS” (priority 2020, published 2024)

Columns and labels:
[1] = Loading (encapsulation) efficacy of essential oils into AgriCell, UV-Vis after ethanol extraction; format: physicochemical; conditions: EO encapsulated into AgriCell; original concentration of EO 200 mg/mL
Method: After […] are purified, the concentrated […] paste or dry lyophilized powder is loaded with EOs. If dry, the […] are first homogenized into a finer powder through mechanical homogenization. A stock solution from each EO is prepared in ethanol at 100 mg/mL-200 mg/mL. Lyophilized […] would then be suspended in a solution with the EO solution at a ratio of 1 g of dry […] to 10 mL of EO solution. Once resuspended, the ethanol is allowed to evaporate overnight, leaving behind EO encapsulated […] in the process. After this overnight period, encapsulated […] are removed from the beaker, and the EO-encapsulated […] powder is mechanically homogenized. This encapsulated product is ready for resuspension in its appropriate medium.

[2] = 7 days, 20 mg/mL
Description: One replicate of each EO per treatment was collected daily and tested for EO content. Results were reported as concentration of EO as function of time for each stability condition.

[3] = 20 mg/mL; for percentage existing / remaining (not damaged) after autoxidation: 168 h; for percentage degraded by autoxidation: 7 days
Description: Results were reported as concentration of EO as function of time for each stability condition.

encapsulation efficacy [1] [%] | percentage of degradation (thermal) [2] [%] | SMILES | percentage existing / remaining (not damaged) after autoxidation [3] [%] | percentage degraded by autoxidation [3] [%]
91.8 | 79.1 | Cc1ccc(C(C)C)c(O)c1 [free thymol, thymol] | 44.2 | 55.8
95.5 | 82.7 | C=CCc1ccc(O)c(OC)c1 [free eugenol, Eugenol] | 17.3 | 82.7
